Assay [1] addresses Neuronal acetylcholine receptor subunit alpha-7 (Rattus norvegicus, UniProt Q05941). In words: Displacement of [125I]-alpha-bungarotoxin from Sprague-Dawley rat brain alpha7 nAChR after 3 hrs by liquid scintillation counting analysis. A general note: Displacement assays read how much labelled ligand stays bound in the presence of the test substance.
Assay [2] concerns the target Neuronal acetylcholine receptor; alpha4/beta2 (Rattus norvegicus, UniProt P09483+P12390). As to the kind of experiment: Displacement of [3H]-cytisine from Sprague-Dawley rat brain alpha4beta2 nAChR after 4 hrs by liquid scintillation counting analysis.

Chain of Neuronal acetylcholine receptor subunit alpha-7 (Q05941 whole entry): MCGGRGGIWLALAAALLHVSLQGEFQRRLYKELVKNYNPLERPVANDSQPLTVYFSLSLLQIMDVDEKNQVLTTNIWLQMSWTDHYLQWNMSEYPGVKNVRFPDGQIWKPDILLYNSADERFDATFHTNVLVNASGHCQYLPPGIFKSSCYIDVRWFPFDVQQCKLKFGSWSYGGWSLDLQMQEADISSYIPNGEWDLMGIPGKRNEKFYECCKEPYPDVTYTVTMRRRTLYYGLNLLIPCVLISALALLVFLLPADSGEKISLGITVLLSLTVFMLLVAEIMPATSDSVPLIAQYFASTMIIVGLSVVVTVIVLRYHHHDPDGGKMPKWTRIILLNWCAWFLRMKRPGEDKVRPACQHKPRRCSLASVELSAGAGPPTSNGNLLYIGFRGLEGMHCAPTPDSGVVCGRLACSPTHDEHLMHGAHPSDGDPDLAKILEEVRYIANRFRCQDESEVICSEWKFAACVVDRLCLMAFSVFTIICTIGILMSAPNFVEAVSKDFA
Chain of Neuronal acetylcholine receptor; alpha4/beta2 (P09483 whole entry): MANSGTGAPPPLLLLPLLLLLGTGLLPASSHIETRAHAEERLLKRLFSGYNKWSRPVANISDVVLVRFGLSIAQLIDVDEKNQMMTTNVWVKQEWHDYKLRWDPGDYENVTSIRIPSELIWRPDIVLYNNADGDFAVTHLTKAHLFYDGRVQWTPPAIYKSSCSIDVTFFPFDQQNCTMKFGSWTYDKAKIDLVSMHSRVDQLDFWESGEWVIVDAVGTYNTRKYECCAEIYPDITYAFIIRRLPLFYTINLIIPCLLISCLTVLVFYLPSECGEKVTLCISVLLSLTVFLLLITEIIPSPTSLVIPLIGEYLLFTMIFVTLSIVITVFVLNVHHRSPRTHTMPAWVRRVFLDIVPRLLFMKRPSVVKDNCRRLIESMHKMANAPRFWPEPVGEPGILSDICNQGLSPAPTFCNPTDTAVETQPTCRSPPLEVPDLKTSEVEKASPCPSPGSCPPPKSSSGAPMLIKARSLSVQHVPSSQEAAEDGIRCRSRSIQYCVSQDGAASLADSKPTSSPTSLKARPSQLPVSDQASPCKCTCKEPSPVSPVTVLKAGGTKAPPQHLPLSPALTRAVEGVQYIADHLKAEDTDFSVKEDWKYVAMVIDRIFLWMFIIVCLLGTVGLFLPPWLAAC
Chain of Neuronal acetylcholine receptor; alpha4/beta2 (P12390 whole entry): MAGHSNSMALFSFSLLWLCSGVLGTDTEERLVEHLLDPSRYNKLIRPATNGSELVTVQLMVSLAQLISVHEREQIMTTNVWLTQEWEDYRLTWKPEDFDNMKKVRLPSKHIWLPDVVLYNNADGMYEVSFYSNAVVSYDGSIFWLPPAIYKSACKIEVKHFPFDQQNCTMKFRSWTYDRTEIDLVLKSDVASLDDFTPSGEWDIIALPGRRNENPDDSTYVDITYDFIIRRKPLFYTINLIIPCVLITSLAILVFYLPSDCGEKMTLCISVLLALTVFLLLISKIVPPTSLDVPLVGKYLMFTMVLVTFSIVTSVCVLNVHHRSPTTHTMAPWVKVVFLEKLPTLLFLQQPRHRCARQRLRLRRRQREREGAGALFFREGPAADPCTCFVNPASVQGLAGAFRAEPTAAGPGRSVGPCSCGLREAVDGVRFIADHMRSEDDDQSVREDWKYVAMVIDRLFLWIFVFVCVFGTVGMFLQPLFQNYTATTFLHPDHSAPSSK

The Ki is a measure of affinity in units of concentration, obtained from inhibition or displacement. The low end stands for a stronger hold on the target, the high end for a looser hold on the target. As for `COc1ccc(CC2C(c3cccnc3)=N[C@H]3CC[C@@H]2C3)c(OC)c1` (stereo partly drawn), the inhibition constant (Ki) in assay [1] was 16.4 nM; in assay [2], 219 nM.
As to `COc1ccc(CC2C(c3cccnc3)=N[C@@H]3CC[C@H]2C3)c(OC)c1` (stereo partly drawn), the Ki in assay [1] amounted to 4400 nM; in assay [2] it was 347 nM.
For the compound `Oc1ccc(CC2C(c3cccnc3)=N[C@H]3CC[C@@H]2C3)cc1` (stereo partly drawn), the inhibition constant Ki is 34.1 nM in assay [1] and 72.5 nM in assay [2].
On to `Nc1ccc(CC2C(c3cccnc3)=N[C@H]3CC[C@@H]2C3)cc1` (stereo partly drawn), for which the Ki was determined as 3.43 nM in assay [1] and 34.1 nM in assay [2].

Source of the values: ChEMBL document CHEMBL2440046, “Anabaseine analogues as modulators of nicotinic acetylcholine receptor” (ACS Med Chem Lett, 2013).
